{"source": "patent US11319306B2", "about": "“Compositions and methods for treating neurodegenerative diseases” (Azevan Pharmaceuticals, Inc., priority 2014, dated 2022)", "key": {"C57Bl/6J males": {"tested_on": "C57Bl/6J males", "assay": "Social interaction test after chronic social subjugation", "assay_type": "in vivo, mice", "source_text": "Anti-depressant Effect in the Social Interaction Test. […] A rapid subjugation paradigm in mice lead to diminished social interaction behavior, where the dependent measures are distance traveled and time in the Interaction Zone. A 28-day treatment regimen with chlordiazepoxide (CDP), a standard anxiolytic, had no effect on deficits produced by chronic subordination. Additional details are described in Berton et al. Essential role of BDNF in the mesolimbic dopamine pathway in social defeat stress. Science 311(5762):864-8 (Feb. 10, 2006).\nBriefly, C57Bl/6J males are defeated daily for 10 days by resident, highly aggressive CF-1 males. After 5 minutes of direct exposure, a perforated plastic partition is inserted into the cage that allowed olfactory and visual contact without physical defeat for the remaining 23 hr 55 min each day. The C57 males are exposed to a different resident male in a different cage each day to increase the stress of the procedure (it is observed that all CF-1 males attacked the intruder each day). At the end of the 10 day defeat procedure, the C57 males are tested in an open field apparatus during the dark phase. A dominant male is caged in an area of the open field apparatus termed the “social interaction zone.” Time and distance traveled in the zone are recorded. The C57 males are then divided randomly among the following treatments: AVN246-HCl (2 mg/kg), saline vehicle (0.45%), or chlordiazepoxide (10 mg/kg). Treatments are given daily (i.p.) for 28 days and the animals are retested. Behavioral changes are determined by calculating difference scores (Post-Pretest) and these scores are analyzed."}, "Pharmacokinetics": {"assay": "Pharmacokinetics", "assay_type": "in vivo", "conditions": "b.i.d. dosing", "source_text": "Pharmacokinetics. Compounds described herein are rapidly absorbed after oral administration. Compounds described herein cross the blood-brain-barrier and achieve therapeutically effective concentrations in the CNS. Compounds described herein may be dosed according to a wide variety of protocols, including but not limited to q.d., b.i.d., and the like."}, "awake rats": {"tested_on": "awake rats", "assay": "Resident-intruder model of stress and aggression in rats, awake fMRI neuroimaging", "assay_type": "in vivo, rat", "conditions": "pretreatment 5 mg/kg 90 minutes before test session, mate + intruder; listed as AVN246", "source_text": "Resident-intruder model of stress and aggression in rats. Neuroimaging is used to assess the blockade of stress/arousal with test compound compared to control. The effect of AVN251-HCl on functional circuitry was examined using the imaging method for awake rats. Additional details of the assay are described in Ferris et al. Imaging the neural circuitry and chemical control of aggressive motivation.\nMale rats in the company of a female cage mate piloerect in the presence of a male intruder. Piloerection is a sign of stress and aggressive intent and is associated with activation of stress/arousal circuits in the brain. Stress circuit activation in response to an intruder male is assessed by obtaining brain scans viewed from a caudal/dorsal perspective as translucent shells. The localization of activated voxels is mapped as 3D volumes of activation, which are composed of 10 subjects each. Once fully registered and segmented, the statistical responses for each subject are averaged on a voxel-by-voxel basis. Those averaged voxels exceeding a 2.0% threshold are shown in their appropriate spatial location. Functional images are acquired on awake rats at 4.7 T.\nResident male rats from six male/female pairs are imaged while fully awake, and presented with their mate, or their mate+an intruder, a highly stressful stimulus. […] The total volume of brain activation for resident males confronted with their mate alone, mate plus intruder, and mate plus intruder in the presence of AVN251-HCl are viewed as 3D models.\nAwake rats are imaged when presented with their mate, or their mate+an intruder. […] In each scan, the dark shaded areas represent activation of vasopressin receptor signaling."}, "human brain": {"tested_on": "human brain", "assay": "fMRI BOLD imaging of test subjects given intranasal AVP (neurodegenerative disease model), emotional faces task", "assay_type": "in vivo", "conditions": "following IN-AVP, compared to placebo", "experimental": "Neurodegenerative disease (ND) model. Test subjects are randomized to an ND model group (for example, n=15), and a baseline control group (for example, n=14). The ND model group is administered intranasal arginine vasopressin (IN-AVP), 40 IU Pitressin (JHP Pharmaceuticals) in a sterile aqueous solution. IN-AVP doses are administered in 3 mL intranasal atomizers (MAD300; Wolfe Tory Medical, Salt Lake City) 45 minutes prior to fMRI imaging. The baseline control group is administered intranasal vehicle only. All test subjects are evaluated by fMRI imaging.\nfMRI imaging. Data are acquired with a Philips Achieva Quasar dual 16 Channel 3T MRI scanner at the University of Chicago Brain Research Imaging Center using a reverse spiral imaging sequence to minimize ventral brain signal dropout. […] Categories include: angry faces, neutral faces, happy faces, and a fixation point. Test subjects are given the “implicit” task of identifying the gender of each image by button press. Statistical parametric maps are generated based on pre-processed 3 mm^3 images that are spatially smoothed with an 8 mm kernel, bandpass filtered to remove drift, checked for excessive movement, and movement-corrected. Images from each individual are warped to an echoplanar image template in Montreal Neurological Institute space. Voxelwise whole brain analysis is conducted on data thresholded at >10 contiguous voxels, with small volume correction p<0.05, to examine effects of test compound versus placebo on BOLD activity in a priori regions of interest (ROI). ROIs of the identified clusters of BOLD differences are extracted as parameter estimates of average BOLD signal intensity in anatomically defined substructures and exported into SPSS (IBM; Armont, N.Y.) for ANCOVA, covarying for baseline parameter estimates in matching ROIs. Extracted parameter estimates of a priori ROIs are also examined with RM-ANOVA in SPSS with the within subjects factor and between subjects factors of all combinations of test compound versus placebo, and IN-AVP versus intranasal placebo. Comparisons are made between emotion conditions (angry faces) and various neutral conditions (neutral faces, happy faces, fixation points). Comparisons are also made between emotion conditions (neutral faces) and various neutral conditions (happy faces, fixation points).\nNeuropsychiatric symptom treatment with vasopressin antagonists. A first group of test subjects in a baseline control group receiving intranasal placebo is randomized to test compound or placebo. A second group of test subjects in a ND model group receiving IN-AVP is randomized to test compound or placebo. Test compound, such as SRX228, SRX246, SRX251, SRX296, or SRX576, or placebo is administered in blinded form for 5-10 days (mean 7.3+/−1.3 days; minimum 5 days; […]) prior to fMRI. Alternatively, test compound, such as SRX228, SRX246, SRX251, SRX296, and SRX576, or placebo is administered in blinded form after IN-AVP or intranasal placebo administration, and prior to fMRI. […] For example, test compound is SRX246 (n=15; 80, 120, or 160 mg po bid) versus placebo (n=14) in oral capsules; or test compound is SRX251 (n=15; 80, 120, or 160 mg po bid) versus placebo (n=14) in oral capsules."}, "V2": {"molecular_target": "V2 (Homo sapiens, UniProt P30518)", "sequence (P30518 whole entry)": "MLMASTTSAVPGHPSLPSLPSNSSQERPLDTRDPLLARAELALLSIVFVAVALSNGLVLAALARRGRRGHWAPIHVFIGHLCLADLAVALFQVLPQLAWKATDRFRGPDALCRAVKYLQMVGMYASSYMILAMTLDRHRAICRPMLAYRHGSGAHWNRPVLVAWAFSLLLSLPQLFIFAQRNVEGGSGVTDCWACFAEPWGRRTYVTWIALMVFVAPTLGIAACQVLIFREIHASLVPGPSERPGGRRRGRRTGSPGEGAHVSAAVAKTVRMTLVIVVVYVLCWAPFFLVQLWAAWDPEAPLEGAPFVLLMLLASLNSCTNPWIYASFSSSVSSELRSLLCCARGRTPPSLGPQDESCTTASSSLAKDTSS", "assay": "V2 receptor inhibition data (Ki)", "assay_type": "binding", "conditions": "receptor selectivity table"}, "V1b receptor": {"molecular_target": "T1, V1b receptor (Homo sapiens, UniProt P47901)", "T1 construct": "expressed in transfected cells; host or cells: CHO-K1 (ATCC), vector pCI-neo, G418-selected clones", "T1 sequence (P47901 1-424)": "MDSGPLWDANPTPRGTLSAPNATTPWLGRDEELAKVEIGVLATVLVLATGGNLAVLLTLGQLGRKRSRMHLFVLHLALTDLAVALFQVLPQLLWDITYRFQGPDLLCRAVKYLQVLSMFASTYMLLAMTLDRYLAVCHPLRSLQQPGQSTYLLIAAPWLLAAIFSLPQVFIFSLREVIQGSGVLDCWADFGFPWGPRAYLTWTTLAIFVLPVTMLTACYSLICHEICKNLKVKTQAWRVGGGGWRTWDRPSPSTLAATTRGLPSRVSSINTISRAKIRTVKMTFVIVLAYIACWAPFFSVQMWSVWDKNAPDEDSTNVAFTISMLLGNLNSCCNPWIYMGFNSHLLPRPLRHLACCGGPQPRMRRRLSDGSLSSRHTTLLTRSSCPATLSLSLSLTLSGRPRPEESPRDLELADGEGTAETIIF", "assay": "Human or rat vasopressin V1b cell-based receptor binding assay", "conditions": "receptor selectivity table; read-out: inhibition data Ki, V1b", "source_text": "Human vasopression V1b receptor-expressing cells. Human vasopressin receptor 1b (hV1b) cDNA (see, Lolait et al., “Extrapituitary expression of the rat V1b vasopressin receptor gene” Proc. Natl. Acad. Sci. USA. 92:6783-7 (1995); de Keyzer et al., “Cloning and characterization of the human V3(V1b) pituitary vasopressin receptor” FEBS Lett. 356:215-20 (1994); Sugimoto et al., “Molecular cloning and functional expression of a cDNA encoding the human V1b vasopressin receptor” J. Biol. Chem. 269:27088-92 (1994)) was inserted into a mammalian cell expression vector PCI-neo (Promega) at EcoR1 site. The recombinant plasmid carrying hV1b cDNA was identified from transformed E. Coli clones and used for the transfection of Chinese hamster ovary cell (CHO-Kl, ATCC). Two micrograms of hV1b receptor DNA was introduced into 10^5 CHO cells cultured in 6-well plate, using Fugene-6 mediated transfection technique (Boehringer Mannheim). Twenty-four hrs post transfection, Cells were then cultured under selection of G-418 (0.25 mg/ml) supplemented to the culture medium. Three days later, limited dilution was carried out to obtain single cell clones in 96-well plates. […]\nHuman or rat vasopression V1b cell-based receptor binding assay. […] Samples were counted in a liquid scintillation counter (Beckman LS3801). IC50 and Ki values were calculated using Prism Curve fitting software. […]"}, "human V1a receptor": {"molecular_target": "T2, human V1a receptor (Homo sapiens, UniProt P37288)", "T2 construct": "host or cells: CHO cells (hV1a cell line)", "T2 sequence (P37288 whole entry)": "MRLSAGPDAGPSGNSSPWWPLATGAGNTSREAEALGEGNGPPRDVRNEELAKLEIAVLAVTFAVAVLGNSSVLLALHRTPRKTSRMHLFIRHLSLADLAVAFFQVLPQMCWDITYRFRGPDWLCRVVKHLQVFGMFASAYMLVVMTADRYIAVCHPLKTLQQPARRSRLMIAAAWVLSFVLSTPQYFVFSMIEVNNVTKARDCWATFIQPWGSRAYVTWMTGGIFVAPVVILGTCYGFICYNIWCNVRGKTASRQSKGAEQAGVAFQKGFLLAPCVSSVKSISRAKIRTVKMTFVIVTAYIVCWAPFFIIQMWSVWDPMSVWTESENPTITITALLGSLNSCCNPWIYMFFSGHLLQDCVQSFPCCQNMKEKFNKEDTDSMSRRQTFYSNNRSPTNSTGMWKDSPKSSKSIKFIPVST", "assay": "Human vasopressin V1a receptor binding assay (3H-AVP competition, hV1a CHO cells)", "in_short": "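Whole CHO cells expressing hV1a were incubated with 1 nM 3H-AVP (as printed \"InM\") and 10-fold dilutions of compound in HEPES/BSA/DMEM buffer, pH 7.0, for 45 min at 37 °C. Non-specific binding was defined with 100 nM cold AVP. Bound radioactivity was SDS-solubilised and counted by scintillation; IC50 from curve fitting.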"}, "[1]": {"conditions": "difference score (Post-Pretest), daily i.p. for 28 days"}}, "note": "Read-outs that look alike come from different tables or passages of the source."}
{"smiles": "CNC1=Nc2ccc(Cl)cc2C(c2ccccc2)=[N+]([O-])C1", "note": "[CDP, chlordiazepoxide]", "values": [{"measurement": "effect on social interaction deficits after chronic subordination", "setting": "C57Bl/6J males; 28-day treatment", "result": "no effect"}, {"measurement": "Distance (traveled in the interaction zone)", "setting": "C57Bl/6J males; [1]", "result": "1.0 ± 5"}, {"measurement": "Time (in the interaction zone)", "setting": "C57Bl/6J males; [1]", "result": "0.0 ± 5"}]}
{"smiles": "C[C@@H](NC(=O)[C@@H](CC(=O)N1CCC(N2CCCCC2)CC1)N1C(=O)[C@@H](N2C(=O)OC[C@@H]2c2ccccc2)[C@H]1/C=C/c1ccccc1)c1ccccc1", "note": "[Example 224, 2(R)-[[4-(Piperidinyl)piperidinyl]carbonylmethyl]-2-[3(S)-(4(S)-phenyloxazolidin-2-on-3-yl)-4(R)-(2-styryl)azetidin-2-on-1-yl]acetic acid N—[(R)-α-methylbenzyl]amide]", "values": [{"measurement": "T1/2", "setting": "Pharmacokinetics", "result": "improved"}, {"measurement": "accumulation", "setting": "Pharmacokinetics", "result": 1.7, "unit": "fold"}, {"measurement": "stress/arousal response in amygdala, cortex, hippocampus and thalamus", "setting": "awake rats", "result": "blocked the stress/arousal response"}, {"measurement": "BOLD activation signal in anterior cingulate cortex and medial prefrontal cortex", "setting": "human brain; posttreatment, angry faces versus happy faces", "result": "significantly decreases"}, {"measurement": "BOLD activation signal in temporoparietal cortex (Brodmann Area 39) and amygdala", "setting": "human brain; posttreatment, angry faces versus happy faces, p<0.05", "result": "significantly decreases"}, {"measurement": "BOLD activation signal in temporoparietal cortex (Brodmann Area 39) and amygdala", "setting": "human brain; pretreatment, angry faces versus fixation point, p<0.001", "result": "significantly decreases"}, {"measurement": "BOLD activation signal in medial prefrontal cortex", "setting": "human brain; pretreatment, angry faces versus fixation point, p<0.005", "result": "significantly decreases"}, {"measurement": "cortical reactivity to angry faces in anterior cingulate cortex and medial superior prefrontal cortex", "setting": "human brain; pretreatment", "result": "significantly attenuated"}]}
{"smiles": "C[C@@H](NC(=O)[C@@H](CC(=O)N1CCC(N2CCCCC2)CC1)N1C(=O)[C@@H](N2C(=O)OC[C@@H]2c2ccccc2)[C@H]1/C=C/c1cccc(I)c1)c1ccccc1", "note": "[Example 266]", "values": [{"measurement": "Ki", "setting": "V2", "result": "> 1000", "unit": "nM"}, {"measurement": "Ki", "setting": "V1b receptor", "result": "> 100", "unit": "nM"}, {"measurement": "IC50", "setting": "human V1a receptor; 3H-AVP competition, CHO cells expressing human V1a, read-out: V1a Binding Affinity IC50", "result": 1.8, "unit": "nM"}, {"measurement": "Ki", "setting": "human V1a receptor; 3H-AVP competition, CHO cells expressing human V1a, read-out: V1a Ki", "result": 1.1, "unit": "nM"}, {"measurement": "Ki", "setting": "human V1a receptor; receptor selectivity table, read-out: inhibition data Ki, V1a", "result": 1.1, "unit": "nM"}]}
